What was measured:
Assay type in all cases: in vivo, mouse
[1] = system: immune tolerant GAA-KO mice; assay: Rotarod testing, ERT plus β2 agonist (Example 6); details: after 4 weeks of treatment; clenbuterol 6 mg/l drinking water plus ERT v. ERT alone
Experimental: GAA-KO mice were administered four weekly doses of rhGAA (20 mg/kg), and treated with medium dose clenbuterol (n=7), albuterol (n=4) or untreated (n=6 or 3). […] Mean+/−standard deviation are shown. P values indicate statistically significant differences (lines).
Two β2 agonists were evaluated in combination with ERT, clenbuterol and albuterol. The dose of clenbuterol was reduced 5-fold from the concentration used in Example 4, to 6 mg/l in drinking water, while albuterol was evaluated at the higher dose (30 mg/l in drinking water). Groups of 3 month-old immune tolerant GAA-KO mice (Raben et al., Human Mol. Genet., 2001, 10:2039-2047) were treated with four weekly doses of rhGAA (20 mg/kg body weight), with or without concurrent β2 agonist treatment.
Mice were sacrificed 7 days after the last injection. Selected tissues were collected for GAA enzyme activity and glycogen content analyses. […] GAA activity and glycogen content analyses, Rotarod testing, and Western blot detection of CI-MPR was performed essentially as described (Koeberl et al., Mol. Genet. Metab., 2011, 103:107-112. Wire hang testing was performed with a 0.5 cm mesh hardware cloth fixed to an 8 by 10 inch frame. Mice were placed on the wire mesh, which was slowly inverted 6 inches over a cage containing paper bedding. The latency, or time until the mouse fell into the cage, was recorded.

GAA-KO mice = assay: GAA activity in tissues, gene therapy plus clenbuterol
Experimental: FIG. 5A-5B depicts enhanced efficacy from liver-targeted gene therapy plus clenbuterol treatment. The GAA-KO mice were injected with AAV-LSPhGAA (2×10^10 vector particles/mouse) or uninjected (5 per group). Vector-treated mice were treated with AAV-LSPhGAA and clenbuterol or with AAV-LSPhGAA alone. Untreated (mock) GAA-KO mice were used as controls. Mice were euthanized for tissue analysis 4 weeks after vector injection. […] Statistically significant differences indicated (*=p<0.05; **=p<0.01).
For in vivo analysis of AAV vectors, stocks were administered intravenously (via the retroorbital sinus) in 3 month-old and 15 month-old GAA-KO mice, and to 3 month-old tolerant GAA-KO and DKO mice. Clenbuterol (30 μg/ml) was administered to groups of 3 month-old vector-injected and mock-injected male GAA-KO mice in drinking water for 28 days. At the indicated time points post-injection, tissue samples were obtained and processed as described below. All animal procedures were done in accordance with Duke University Institutional Animal Care and Use Committee-approved guidelines. GAA activity and glycogen content were analyzed essentially as described (Sun et al., Mol. Ther., 2005, 11:889-898; Sun et al., Mol. Ther., 2005, 11: 57-65). Rotarod testing was performed essentially as described (Sun, B. D. et al. 2005). […]

[2] = system: immune tolerant GAA-KO mice; assay: Glycogen content in tissues, ERT plus β2 agonist (Example 6)
Experimental: (§1) Male GAA-KO mice were administered four weekly doses of 20 mg/kg body weight of rhGAA and sacrificed one week following the last injection. Groups of mice were treated with clenbuterol (n=6), albuterol (n=4) or untreated (n=6). Mice were euthanized for tissue analysis 5 weeks after initiation of ERT.
(§2) Cerebral and cerebellar hemispheres were analyzed 5 weeks following the initiation of ERT. Groups of mice were treated with clenbuterol (n=6), albuterol (n=4) or untreated (n=6).
(§3) Two β2 agonists were evaluated in combination with ERT, clenbuterol and albuterol. […] Groups of 3 month-old immune tolerant GAA-KO mice (Raben et al., Human Mol. Genet., 2001, 10:2039-2047) were treated with four weekly doses of rhGAA (20 mg/kg body weight), with or without concurrent β2 agonist treatment.
(§4) Mice were sacrificed 7 days after the last injection. Selected tissues were collected for GAA enzyme activity and glycogen content analyses. All animal procedures were done in accordance with Duke University Institutional Animal Care and Use Committee-approved guidelines. GAA activity and glycogen content analyses, Rotarod testing, and Western blot detection of CI-MPR was performed essentially as described (Koeberl et al., Mol. Genet. Metab., 2011, 103:107-112. Wire hang testing was performed with a 0.5 cm mesh hardware cloth fixed to an 8 by 10 inch frame. Mice were placed on the wire mesh, which was slowly inverted 6 inches over a cage containing paper bedding. The latency, or time until the mouse fell into the cage, was recorded.

[3] = system: immune tolerant GAA-KO mice; assay: GAA activity in tissues, ERT plus β2 agonist (Example 6)
Experimental: as §1, §2, §3, §4

CC(C)(C)NCC(O)c1cc(Cl)c(N)c(Cl)c1 (stereo not shown) [clenbuterol]
Rotarod latency [1]: significantly increased
GAA activity (GAA-KO mice; heart, vector plus clenbuterol v. vector alone, p=0.03): significantly increased
GAA activity (GAA-KO mice; skeletal muscles and the brain, clenbuterol administration with vector): significantly increased
Glycogen content ([2]; all striated muscles with the exception of tibialis anterior, clenbuterol plus ERT v. ERT alone): reduced significantly
Glycogen content ([2]; cerebellum, β2 agonist plus ERT v. ERT alone): reduced significantly
GAA activity ([3]; cerebellum, 5 weeks after initiation of ERT, clenbuterol p=0.08, albuterol p=0.09): trend toward increased GAA activity
GAA activity in tissues with reduced glycogen content ([3]; β2 agonist plus ERT v. ERT alone): unchanged
